The results in this text go back to patent US20130315843A1, “COMPOSITION FOR REDUCTION OF TRPA1 AND TRPV1 SENSATIONS” (priority 2012, published 2013).

Test [1] addresses T1, human TRPA1 (Homo sapiens, UniProt O75762). Put plainly: FLIPR Ca2+ assay, reduction of hydrogen peroxide activation of TRPA1. In kind it is cell-based. Details: expressed in transfected cells. Conditions: for inhibition at 100 µM / inhibition at 400 µM: read-out: % Reduction of Hydrogen Peroxide TRPA1 Activation. The protocol:
After centrifugation, a pellet of cells was formed in the bottom of the tube separating them from the supernatant solution.
The pelleted cells were re-suspended in 10 ml assay buffer and 90 μl aliquots (˜50,000 cells) per well delivered to a 96-well assay plate containing 10 μl of test compounds ([…]) or buffer control and incubated at room temperature for 30 minutes.

For test [2], the target named is T1, human TRPA1. Put plainly: FLIPR Ca2+ assay, reduction of L-Menthol activation of TRPA1. As to conditions: 100 μM antagonist vs 1 mM L-Menthol.
Test [3] deals with T2, human TRPV1 (Homo sapiens, UniProt Q8NER1). Put plainly: FLIPR Ca2+ assay, reduction of L-Menthol activation of TRPV1. Conditions: for Average Ca2+ Counts: antagonist 100 μM against 1 mM L-Menthol; for inhibition at 100 µM: read-out: % Reduction of L-Menthol TRPV1 Activation.
Protocol: To determine whether TRPV1 was activated, the intracellular calcium ion (Ca^+2) levels from cells transfected with the TRPV1 receptor gene was measured. HEK-239 cells stably transfected with human TRPV1 were grown in 15 ml growth medium [high glucose DMEM (Dulbecco's Modification of Eagle's Medium) supplemented with 10% FBS (fetal bovine serum), 100 g/ml Penicillin/streptomycin, 100 g/ml G418] in a 75 Cm2 flask for 3 days at 33° C. in a mammalian cell culture incubator set at 5% CO2. Cells were detached with addition of 10 ml of PBS (phosphate buffered saline) by hand shaking gently. Cells were transferred to a 50 ml tube and centrifuged at 850 rpm for 3 minutes to remove PBS. After centrifugation, a pellet of cells formed in the bottom of the tube separating them from the supernatant solution. The supernatant was discarded and the cell pellet suspended in 1 ml of fresh growth medium to which 5 μl (12.5 g) of Fluo-4 AM (Molecular Probes, Inc., Eugene, Oreg.) calcium indicator was added and incubated for 30 minutes with gentle shaking.
The pelleted cells were re-suspended in 10 ml assay buffer and 90 μl aliquots (˜50,000 cells) per well delivered to a 96-well assay plate containing 10 μl of test compounds (1 mM in assay buffer, final concentration 100 μM) or buffer control and incubated at room temperature for 30 minutes. After 30 minutes, the plate was placed into a fluorometric imaging plate reader (FLIPR384 from Molecular Devices) and basal fluorescence recorded (excitation wave length 488 nm and emission wave length 510 nm). Then 20 μl of the compound being tested as a TRPV1 receptor activator was added and fluorescence recorded. […] It may be no difference (no effect), or negative (means antagonist or desensitizer) or positive (enhancer, also known as positive allosteric modulator). […] To determine if a compound was an antagonist or a desensitizer, the direct effect of a test compound was determined. For determining the direct effect of test compounds on TRPV1, 100 μl aliquots (˜50,000 cells) of cells prepared as described above were delivered to a 96-well assay plate and basal fluorescence recorded as noted above. Then 20 μl of the compound being tested as a TRPV1 receptor activator was added and fluorescence recorded. If any increase in fluorescence over background was noted, then the compound was considered an agonist. The agonist activity was expressed relative to that observed with a benchmark agonist such as 350 nM Capsaicin for TRPV1.
100 μM of antagonist was tested against 1 mM of L-Menthol to determine the level of reduced TRPV1 receptor activation by L-Menthol. Each antagonist compound was run with 1 mM of L-Menthol as a control and the antagonist activity of each compound was determined by comparing the Ca^2+ levels of the control with the antagonist compound being tested.
Test [4] addresses T1, human TRPA1. Put plainly: FLIPR Ca2+ assay, block of AITC activation of TRPA1. In kind it is cell-based. Details: expressed in transfected cells.
Protocol: Intracellular Ca^++ levels were measured using cell based assays as described for EXAMPLES 1, 2, and 3.
Test [5] has as its target T2, human TRPV1. Put plainly: FLIPR Ca2+ assay, reduction of hydrogen peroxide activation of TRPV1. In kind it is cell-based. More on the design: expressed in transfected cells. As to conditions: antagonist 100 μM against 500 μM hydrogen peroxide. The protocol:
Cells were detached with addition of 10 ml of PBS (phosphate buffered saline) by hand shaking gently. Cells were transferred to a 50 ml tube and centrifuged at 850 rpm for 3 minutes to remove PBS.
The pelleted cells were re-suspended in 10 ml assay buffer and 90 μl aliquots (˜50,000 cells) per well delivered to a 96-well assay plate containing 10 μl of test compounds (1 mM in assay buffer, […]) or buffer control and incubated at room temperature for 30 minutes.

The mark [6] stands for this setting: 100 μM antagonist vs 500 μM hydrogen peroxide.
Setting [7] is: compound 100 μM against 200 μM hydrogen peroxide, Sets 1-4.
[8] abbreviates: 400 μM antagonist vs 500 μM hydrogen peroxide.
Setting [9] is: antagonist 400 μM against 200 μM hydrogen peroxide.

T2 sequence (Q8NER1 whole entry): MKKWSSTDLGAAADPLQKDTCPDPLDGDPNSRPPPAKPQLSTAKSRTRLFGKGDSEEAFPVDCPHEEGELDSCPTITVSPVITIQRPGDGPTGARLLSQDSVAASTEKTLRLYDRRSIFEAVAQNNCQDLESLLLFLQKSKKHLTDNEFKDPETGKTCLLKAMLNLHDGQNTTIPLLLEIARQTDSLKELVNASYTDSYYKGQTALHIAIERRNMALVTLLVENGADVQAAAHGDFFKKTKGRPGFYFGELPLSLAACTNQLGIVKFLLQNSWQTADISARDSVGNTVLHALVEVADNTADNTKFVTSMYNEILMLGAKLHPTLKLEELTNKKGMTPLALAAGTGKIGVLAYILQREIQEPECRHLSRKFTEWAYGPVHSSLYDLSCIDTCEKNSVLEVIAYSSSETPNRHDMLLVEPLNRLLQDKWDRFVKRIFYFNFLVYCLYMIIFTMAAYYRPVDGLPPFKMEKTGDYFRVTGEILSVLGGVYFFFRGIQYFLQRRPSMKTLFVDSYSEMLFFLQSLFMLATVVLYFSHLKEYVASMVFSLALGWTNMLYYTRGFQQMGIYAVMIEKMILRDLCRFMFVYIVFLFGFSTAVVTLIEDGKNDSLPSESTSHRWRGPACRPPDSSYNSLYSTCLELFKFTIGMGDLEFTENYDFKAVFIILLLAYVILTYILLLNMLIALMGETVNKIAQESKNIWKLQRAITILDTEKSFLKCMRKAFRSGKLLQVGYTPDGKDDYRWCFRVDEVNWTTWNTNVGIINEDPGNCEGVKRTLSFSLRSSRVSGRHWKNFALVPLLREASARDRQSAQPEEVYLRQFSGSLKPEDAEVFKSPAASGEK
T1 sequence (O75762 whole entry): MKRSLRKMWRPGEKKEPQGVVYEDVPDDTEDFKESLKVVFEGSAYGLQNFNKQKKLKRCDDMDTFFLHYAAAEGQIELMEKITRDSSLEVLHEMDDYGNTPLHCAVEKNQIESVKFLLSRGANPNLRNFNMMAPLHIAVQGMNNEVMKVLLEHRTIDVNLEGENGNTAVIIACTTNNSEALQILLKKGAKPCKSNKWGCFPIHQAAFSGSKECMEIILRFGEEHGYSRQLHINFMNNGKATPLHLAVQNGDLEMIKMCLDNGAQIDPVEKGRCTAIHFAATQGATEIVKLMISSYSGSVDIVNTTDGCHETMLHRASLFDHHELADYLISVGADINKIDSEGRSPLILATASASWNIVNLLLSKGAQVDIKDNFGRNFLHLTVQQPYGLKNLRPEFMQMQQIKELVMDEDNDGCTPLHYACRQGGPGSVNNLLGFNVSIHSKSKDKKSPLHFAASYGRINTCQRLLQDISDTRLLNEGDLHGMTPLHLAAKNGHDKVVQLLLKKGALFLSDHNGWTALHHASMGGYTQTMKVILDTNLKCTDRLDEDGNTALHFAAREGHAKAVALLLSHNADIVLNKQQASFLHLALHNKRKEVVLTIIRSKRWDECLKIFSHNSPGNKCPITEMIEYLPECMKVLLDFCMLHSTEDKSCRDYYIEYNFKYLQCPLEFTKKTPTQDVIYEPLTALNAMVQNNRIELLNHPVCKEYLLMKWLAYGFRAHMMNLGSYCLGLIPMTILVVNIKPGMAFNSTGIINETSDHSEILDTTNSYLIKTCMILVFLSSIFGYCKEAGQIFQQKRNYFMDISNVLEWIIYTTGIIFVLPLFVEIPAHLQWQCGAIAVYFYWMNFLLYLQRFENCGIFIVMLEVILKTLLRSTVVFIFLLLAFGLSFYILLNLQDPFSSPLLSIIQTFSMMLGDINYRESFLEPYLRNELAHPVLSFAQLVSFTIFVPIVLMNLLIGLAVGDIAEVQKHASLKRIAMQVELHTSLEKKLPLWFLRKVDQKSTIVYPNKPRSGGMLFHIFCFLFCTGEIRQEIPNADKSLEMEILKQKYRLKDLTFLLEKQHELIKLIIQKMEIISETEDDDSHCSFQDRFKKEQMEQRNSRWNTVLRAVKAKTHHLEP

Consider `COc1nccnc1CC(C)C` [2-isobutyl-3-methoxypyrazine], for which the “Block of hydrogen peroxide activation of TRPA1” value on human TRPA1 [1] (setting [6]) is reported as “BLOCK BOTH MENTHOL AND H2O2 ON TRPA1”. Besides, on human TRPA1 [1] (setting [7]), the “Average Ca++ Counts” value is 3067.5 Counts and the inhibition at 100 µM was found to be 56.4%. The “Block of L-Menthol activation of TRPA1” value on human TRPA1 [2] is “BLOCK BOTH MENTHOL AND H2O2 ON TRPA1”. Also, on human TRPV1 [3], the “Average Ca2+ Counts” value stood at 4020.0 Counts and the inhibition at 100 µM was found to be 37.2%.
As for `CCCC/C=C/C=C/C=O` [trans, trans-2,4-Nonadienal], the “Block of hydrogen peroxide activation of TRPA1” value at human TRPA1 [1] (setting [8]) was “Block both H2O2 and AITC on TRPA1”. Besides, at human TRPA1 [1] (setting [9]), the inhibition at 400 µM came to 67%. Also, the “Block of AITC activation of TRPA1” value on human TRPA1 [4] (400 μM antagonist) was “Block both H2O2 and AITC on TRPA1”.
In the case of `c1ccc2scnc2c1` [benzothiazole], at human TRPA1 [1] (setting [7]), the “Average Ca++ Counts” value turned out to be 5513.0 Counts and the inhibition at 100 µM amounted to 48%. For the same compound, at human TRPA1 [4] (100 μM antagonist), the “Block of AITC activation of TRPA1” value was “Block both H2O2 and AITC on TRPA1”.
Take `COc1ccccc1C=CC=O` [o-Methoxycinnamaldehyde]: the “Block of hydrogen peroxide activation of TRPA1” value at human TRPA1 [1] (setting [8]) is “Block both H2O2 and AITC on TRPA1”. On human TRPA1 [1] (setting [9]), the inhibition at 400 µM worked out at 51%. In addition, the “Block of AITC activation of TRPA1” value at human TRPA1 [4] (400 μM antagonist) was “Block both H2O2 and AITC on TRPA1”.
Take `C=CCc1cc(OC)c(O)c(OC)c1` [4-Allyl-2,6-dimethoxyphenol]: on human TRPA1 [1] (setting [8]), the “Block of hydrogen peroxide activation of TRPA1” value was “Block both H2O2 and AITC on TRPA1”. Also, the inhibition at 400 µM on human TRPA1 [1] (setting [9]) turned out to be 54%. Also, the “Block of AITC activation of TRPA1” value at human TRPA1 [4] (400 μM antagonist) was “Block both H2O2 and AITC on TRPA1”.
In the case of `CCCC(=O)OCc1ccc(OC)cc1` [Anisyl Butyrate], the “Block of hydrogen peroxide activation of TRPA1” value on human TRPA1 [1] (setting [8]) was “Block both H2O2 and AITC on TRPA1”. The “% Reduction of Hydrogen Peroxide TRPA1 Activation” value on human TRPA1 [1] (setting [9]) was 54%. In addition, the “Block of AITC activation of TRPA1” value on human TRPA1 [4] (400 μM antagonist) was “Block both H2O2 and AITC on TRPA1”.
`CC(S)CS` (stereo not drawn) [1,2-propanedithiol]: the “Block of hydrogen peroxide activation of TRPA1” value at human TRPA1 [1] (setting [6]) is “Block both H2O2 and AITC on TRPA1”. At human TRPA1 [1] (setting [7]), the “% Reduction of Hydrogen Peroxide TRPA1 Activation” value is listed as 68.8% and the “Average Ca++ Counts” value was found to be 2194.5 Counts. Also, the “Block of AITC activation of TRPA1” value on human TRPA1 [4] (100 μM antagonist) was “Block both H2O2 and AITC on TRPA1”.
Turning to `CC1=CC(=O)[C@@H](C(C)C)CC1` [L-Piperitone], the “% Reduction of Hydrogen Peroxide TRPV1 Activation” value at human TRPV1 [5] is 58%.
`CCOC(=O)CC1(C)OCCO1` [ethyl acetoacetate ethylene ketal]: the “Block of hydrogen peroxide activation of TRPA1” value at human TRPA1 [1] (setting [6]) is “Block both H2O2 and AITC on TRPA1”. In addition, on human TRPA1 [1] (setting [7]), the “Average Ca++ Counts” value is on record as 3298.5 Counts and the inhibition at 100 µM is 53.2%. For the same compound, at human TRPA1 [4] (100 μM antagonist), the “Block of AITC activation of TRPA1” value was “Block both H2O2 and AITC on TRPA1”.
Take `O=C(Oc1ccccc1)c1ccccc1O` [phenyl salicylate]: the “Block of hydrogen peroxide activation of TRPA1” value at human TRPA1 [1] (setting [6]) was “Block both H2O2 and AITC on TRPA1”. At human TRPA1 [1] (setting [7]), the “Average Ca++ Counts” value came out at 2893.5 Counts and the inhibition at 100 µM turned out to be 72.7%. For the same compound, the “Block of AITC activation of TRPA1” value at human TRPA1 [4] (100 μM antagonist) was “Block both H2O2 and AITC on TRPA1”.
For `CCOC(=O)CC(C)=O` [ethyl acetoacetate], on human TRPA1 [1] (setting [6]), the “Block of hydrogen peroxide activation of TRPA1” value was “Block both H2O2 and AITC on TRPA1”. On human TRPA1 [1] (setting [7]), the “Average Ca++ Counts” value is on record as 3314.5 Counts and the inhibition at 100 µM came to 43.6%. Further, at human TRPA1 [4] (100 μM antagonist), the “Block of AITC activation of TRPA1” value is “Block both H2O2 and AITC on TRPA1”.
`CC(C)OC(=O)C(C)C` [isobutyric acid isopropyl ester]: on human TRPA1 [1] (setting [6]), the “Block of hydrogen peroxide activation of TRPA1” value was “Block both H2O2 and AITC on TRPA1”. At human TRPA1 [1] (setting [7]), the “Average Ca++ Counts” value came to 3392.5 Counts and the inhibition at 100 µM came out at 51.8%. Moreover, the “Block of AITC activation of TRPA1” value at human TRPA1 [4] (100 μM antagonist) was “Block both H2O2 and AITC on TRPA1”.
With `C=CCOC(=O)CCC1CCCCC1` [allyl cyclohexanepropionate], at human TRPA1 [1] (setting [6]), the “Block of hydrogen peroxide activation of TRPA1” value is listed as “BLOCK BOTH MENTHOL AND H2O2 ON TRPA1”. In addition, at human TRPA1 [1] (setting [7]), the “Average Ca++ Counts” value amounted to 3443.0 Counts and the inhibition at 100 µM was determined as 51.1%. The “Block of L-Menthol activation of TRPA1” value on human TRPA1 [2] is given as “BLOCK BOTH MENTHOL AND H2O2 ON TRPA1”. For the same compound, on human TRPV1 [3], the “Average Ca2+ Counts” value was 4895.5 Counts and the inhibition at 100 µM turned out to be 23.5%.
`C1CNCCN1` [piperazine]: at human TRPA1 [1] (setting [6]), the “Block of hydrogen peroxide activation of TRPA1” value is “BLOCK BOTH MENTHOL AND H2O2 ON TRPA1”. Besides, at human TRPA1 [1] (setting [7]), the “Average Ca++ Counts” value is given as 2815.5 Counts and the inhibition at 100 µM was 60%. For the same compound, the “Block of L-Menthol activation of TRPA1” value at human TRPA1 [2] was “BLOCK BOTH MENTHOL AND H2O2 ON TRPA1”. In addition, at human TRPV1 [3], the “Average Ca2+ Counts” value was 3405.0 Counts and the inhibition at 100 µM amounted to 46.8%.
As for `CCCOC(=O)CCCCC(=O)OCCC` [hexanedioic acid, dipropyl ester], the “Block of L-Menthol activation of TRPA1” value on human TRPA1 [2] is on record as “BLOCK ONLY MENTHOL/TRPA1”. Moreover, at human TRPV1 [3], the “Average Ca2+ Counts” value was determined as 2964.0 Counts and the inhibition at 100 µM turned out to be 26.6%.
